Non-standard residues stand in square brackets, D forms with d. Residues, ends and D or L forms follow the SMILES beside them.
Columns and labels:
Format in all cases: cell-based
mouse red blood cells = tested on: mouse red blood cells
Description: Red blood cells were diluted with PBS, centrifuged 3 times at 900 g for 10 minutes, and washed. 100 μl of the diluted red blood cell solution (10% v/v PBS) was dispensed into each well of a 96-well microplate, and KU-5878, KU-5878-K4, KU-5878-K4-D, melittin, magainin 2 or daptomycin was added to each well which was then filled with PBS to 200 μl, followed by reaction by incubation at 37° C. for 1 hour. Then, the supernatant of the reaction solution was separated, and the absorbance at a wavelength of 550 nm was measured using a spectrophotometer. As control, PBS and 0.1% Triton X-100 (Triton X-100) solution were used.
Based on the results of measurement of the absorbance, the degree of red blood cell destruction was calculated according to Equation 1 below, and the results of the calculation are shown in FIG. 6. % The intact RBC=100(%)−[(absorbance of peptide-treated red blood cell solution−absorbance of PBS-treated red blood cell solution)/(absorbance of Triton X-100-treated red blood cell solution−absorbance of PBS-treated red blood cell solution)×100(%)] [Equation 1]

[1] = tested on: Staphylococcus aureus (ATCC 29213); assay: Minimum bactericidal concentration (MBC) assay; parameters: MBC Staphylococcus aureus: unit: µg/mL
In short: (§1)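 Peptide, 0–300 μg/ml, + bacteria at 1×10^5 CFU/ml in 10 mM sodium phosphate/1% TSB, 1 h, 37° C. Spot onto TS agar, 37° C 18 h. MBC: lowest conc. w/o colony growth. Strains pre-grown in 3% TSB.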

[2] = tested on: Methicillin-resistant Staphylococcus aureus (MRSA, ATCC 33591); assay: Minimum bactericidal concentration (MBC) assay; parameters: unit: µg/mL
In short: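 Peptide at 0 to 300 μg/ml reacted 1 h at 37 °C with 1×10^5 CFU/ml bacteria in SP buffer (10 mM sodium phosphate, 1% TSB), bacteria pre-grown in 3% TSB. Aliquots then spread on TS agar and checked for colonies after 18 h at 37 °C.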

[3] = tested on: Pseudomonas aeruginosa, Staphylococcus aureus, CRPA, MRSA; assay: Increase in antibacterial activity (MBC) compared with KU-5878
CRPA = assay: Minimum bactericidal concentration (MBC) assay; parameters: unit: µg/mL
[4] = tested on: Pseudomonas aeruginosa (ATCC 27853); assay: Minimum bactericidal concentration (MBC) assay; parameters: MBC Pseudomonas aeruginosa: unit: µg/mL
In short: as §1

[5] = mark = antibacterial activity increased compared with KU-5878

Molecule	hemolysis of red blood cells (mouse red blood cells)	MBC Staphylococcus aureus ([1]; Tables 11-21, no unit printed)	MBC MRSA ([2]; Tables 11-21, no unit printed)	Increase in activity [3, 5]	MBC CRPA (CRPA; Tables 11-21, no unit printed)	MBC Pseudomonas aeruginosa ([4]; Tables 11-21, no unit printed)	MBC Staphylococcus aureus ([1]; Staphylococcus aureus) [µg/mL]	MBC MRSA ([2]; MRSA) [µg/mL]	Increase in activity ([3]; compared with KU-5878)	MBC CRPA (CRPA; CRPA) [µg/mL]	MBC Pseudomonas aeruginosa ([4]; Pseudomonas aeruginosa) [µg/mL]
CC[C@H](C)[C@H](NC(=O)CNC(=O)[C@H](CCSC)NC(=O)CNC(=O)[C@@H](NC(=O)[C@H](C)NC(=O)[C@H](CCSC)NC(=O)[C@H](Cc1ccccc1)NC(=O)[C@@H](NC(=O)CNC(=O)[C@H](Cc1ccccc1)NC(=O)[C@@H](CCCCN)NC(=O)CNC(=O)CNC(=O)[C@@H](CCCCN)NC(=O)[C@@H](CCCCN)NC(=O)[C@H](CCSC)NC(=O)[C@H](CCSC)NC(=O)[C@@H](CCCCN)NC(=O)[C@@H](N)CCCCN)[C@@H](C)O)[C@@H](C)CC)C(=O)N[C@@H](CCCNC(=N)N)C(=O)O [KU-5878-K4-D] (H-K[dK]MM[dK][dK]GG[dK]FGTFMAIGMGIR-OH)	little hemolysis										
KTMMQSGGTFGTFMAIGM-IR [Peptide 5878-d76G]		70 µg/mL	90 µg/mL	0	90 µg/mL	80 µg/mL					
KTMMQSGGTFGTFMAIGMGIRKK [Peptide 5878-KK]		16 µg/mL	16 µg/mL	◯	16 µg/mL	15 µg/mL					
KTMMQSGGTFGTFMAIGMGIRRRR [Peptide 5878-3R]		8 µg/mL	10 µg/mL	◯	8 µg/mL	8 µg/mL					
TKMMKKGGKFGTFMAIGMGIR [Peptide K4-K58T]		3	4	◯	3	3					
d 58K 60M 71M 72A (MKKGGKFGTF)							15	20	◯	20	20
d 58K 64G 72A 75M (GKFGTFM)							6	8	◯	8	6
d 60M 61M 71M 75M (KKGGKFGTF)							1	2	◯	2	2
d 60M 62K 71M 75M (KGGKFGTF)							2	3	◯	3	2
d 60M 69T 71M 75M (MKKGGKFG)							1	2	◯	2	2
d 60M 71M 72A 75M (MKKGGKFGTF)							1	3	◯	2	2
